US9884825B2, “Curcumin analogs and methods of making and using thereof” (Georgia State University Research Foundation, Inc., priority 2012, dated 2018)
Read-outs that look alike come from different tables or passages of the source.

Columns and labels:
[1] = test system: human embryonic kidney 293 cells (Hek); test: MTT cytotoxicity assay, Hek cells; assay type: cell-based; conditions: Hek 293 cells, 48 h incubation
Description: (§1) Two cell human cancer cell lines were used in this study: human cervical cancer cells (HeLa) and human embryonic kidney 293 cells (Hek). The cell lines were obtained from ATCC (Rockville, Md., USA). Cell lines were cultured at 37° C. and 5% CO2 in DMEM medium with 10% fetal bovine serum (FBS) and 1% penicillin/streptomycin (all obtained from GibcoBRL, Grand Island, N.Y.). Cells were passaged three times weekly by trypsinisation with 0.25% trypsin/0.02% EDTA solution (Sigma) into 75 cm^2 tissue culture flasks (Nunc, Denamark).
(§2) Both human cervical cancer cells (HeLa) and human embryonic kidney 293 cells (Hek) cell lines were seeded into 96-well plate (2.5×10^4 in 100 μL per well). Testing compounds were dissolved or suspended in DMSO to make 10 mM stock solutions. Addition of compounds was performed after adherent cells reached 40-50% confluence. After incubation for 48 h at 37° C. in humidified atmosphere with 5% CO2, 10 μL of MTT (5 mg/mL in PBS) was added to each well and incubated for another 4 h. The culture medium was then aspirated and 100 μL of DMSO was added to each well. Optical densities at 490 nm were measured by microplate reader (PERKINELMER VICTOR 3V model 1420). All tests were performed in triplicates. Doxorubicin was used as a positive control and the same amount DMSO without compound was used as negative control. IC50 values were obtained from the curve fitting by using Sigma plot10.

[2] = test system: human cervical cancer cells (HeLa); test: MTT cytotoxicity assay, HeLa cells; assay type: cell-based; conditions: for IC50: Homo sapiens; for cytotoxicity against HeLa cells, in words: screening at 50 μM, 20 μM and 2 μM (FIGS. 1-2)
Description: as §1, §2

PC3 cell = test: Cytotoxicity against PC3 cell line; assay type: cell-based; conditions: Homo sapiens, PC-3, mean ± spread, unit inferred, read-out: IC50 PC3 cell (Table 6)
DU145 cell = test: Cytotoxicity against DU145 cell line; assay type: cell-based; conditions: Homo sapiens, DU-145, mean ± spread, unit inferred, read-out: IC50 DU145 cell (Table 6)
KB cell = test: Cytotoxicity against KB cell line; assay type: cell-based; conditions: Homo sapiens, mean ± spread, unit inferred, read-out: IC50 KB cell (Table 6)
Molt4 cell = test: Cytotoxicity against MOLT4 cell line; assay type: cell-based; conditions: Homo sapiens, MOLT-4; Table 3, SM compounds
[3] = HeLa cells, MTT assay, 48 h incubation, read-out: IC50 (μM) Hela
[4] = HeLa cells, MTT assay, range or bound stated in text, read-out: IC50 against HeLa cancer cell lines
[5] = HeLa cell, mean ± spread, unit inferred, read-out: IC50 HeLa cell (Table 6)
[6] = HeLa, Table 3, SM compounds, read-out: IC50 (μM) against Hela cell

Structure (SMILES) | IC50 (PC3 cell) [µM] | IC50 (DU145 cell) [µM] | IC50 [2, 5] [µM] | IC50 (KB cell) [µM] | further results
Cc1ccc(S(=O)(=O)N2C/C(=C\c3ccc(Br)cc3)C(=O)/C(=C/c3ccc(Br)cc3)C2)cc1 [3a, 3,5-Bis(4-bromobenzylidene)-1-tosylpiperidin-4-one] |  |  |  |  | melting point: 214 °C; IC50 [1]: 1.39 µM; IC50 ([1]; Homo sapiens, HEK293, 48 h): 1.24 to 3.54 µM; IC50 [2, 3]: 0.28 µM; IC50 [2, 4]: 0.3 to 1.5 µM; cytotoxicity against HeLa cells, in words ([2]; MTT assay): very good activity
Cc1ccc(S(=O)(=O)N2C/C(=C\c3ccc(F)cc3)C(=O)/C(=C/c3ccc(F)cc3)C2)cc1 [3j, 3,5-Bis(4-fluorobenzylidene)-1-tosylpiperidin-4-one] |  |  |  |  | melting point: 204 °C; IC50 [1]: 1.24 µM; IC50 ([1]; Homo sapiens, HEK293, 48 h): 1.24 to 3.54 µM; IC50 [2, 3]: 0.61 µM; IC50 [2, 4]: 0.3 to 1.5 µM
O=C1/C(=C/c2ccc(Cl)cc2)CN(S(=O)(=O)c2ccccc2)C/C1=C\c1ccc(Cl)cc1 [4e, 3,5-Bis(4-chlorobenzylidene)-1-(phenylsulfonyl)piperidin-4-one] |  |  |  |  | melting point: 237 °C; IC50 [1]: 1.97 µM; IC50 ([1]; Homo sapiens, HEK293, 48 h): 1.24 to 3.54 µM; IC50 [2, 3]: 0.85 µM; IC50 [2, 4]: 0.3 to 1.5 µM; cytotoxicity against HeLa cells, in words ([2]; MTT assay): very good activity
O=C1/C(=C/c2ccc(Br)cc2)CN(S(=O)(=O)c2ccccc2)C/C1=C\c1ccc(Br)cc1 [4i, 3,5-Bis(4-bromobenzylidene)-1-(phenylsulfonyl)piperidin-4-one] |  |  |  |  | melting point: 247 °C; IC50 [2, 3]: 1.44 µM; IC50 [2, 4]: 0.3 to 1.5 µM
CCN1C/C(=C\c2ccc(C(C)C)cc2)C(=O)/C(=C/c2ccc(C(C)C)cc2)C1 [6g, 1-Ethyl-3,5-bis(4-isopropylbenzylidene)piperidin-4-one] |  |  |  |  | IC50 [1]: 1.78 µM; IC50 ([1]; Homo sapiens, HEK293, 48 h): 1.24 to 3.54 µM; IC50 [2, 3]: 0.86 µM; IC50 [2, 4]: < 1 µM; cytotoxicity against HeLa cells, in words ([2]; MTT assay): very good activity
COc1cccc2c1C(=O)c1c(O)c3c(c(O)c1C2=O)C[C@@](O)(C(=O)CO)C[C@@H]3O[C@H]1C[C@H](N)[C@H](O)[C@H](C)O1 [Doxorubicin, reference compound] | 0.23 ± 0.01 | 0.47 ± 0.25 | 0.96 ± 0.27 | 0.4 ± 0.11 | IC50 ([1]; Homo sapiens, HEK293, 48 h): 0.95 µM; IC50 [2, 3]: 2.89 µM
COc1cc(/C=C2\CC/C(=C\c3ccc(OCCBr)c(OC)c3)C2=O)ccc1OCCBr [SM216] |  |  |  |  | IC50 [2, 6]: > 2.5 µM; IC50 (Molt4 cell): > 50 µM
COc1cc(/C=C2\CC/C(=C\c3ccc(OCCN4CCOCC4)c(OC)c3)C2=O)ccc1OCCN1CCOCC1 [SM218] |  |  |  |  | IC50 [2, 6]: > 2.5 µM; IC50 (Molt4 cell): > 2.5 µM
COc1cc(/C=C2\CC/C(=C\c3ccc(OCCn4ccnc4)c(OC)c3)C2=O)ccc1OCCn1ccnc1 [SM223] |  |  |  |  | IC50 [2, 6]: > 2.5 µM; IC50 (Molt4 cell): > 2.5 µM
COc1cc(/C=C2\CC/C(=C\c3ccc(OCCN4CCCCC4)c(OC)c3)C2=O)ccc1OCCN1CCCCC1 [SM226] |  |  |  |  | IC50 [2, 6]: 0.02 µM; IC50 (Molt4 cell): 0.4 µM
COc1cc(/C=C2\CC/C(=C\c3ccc(OCCN(C)C)c(OC)c3)C2=O)ccc1OCCN(C)C [SM229] |  |  |  |  | IC50 [2, 6]: 0.03 µM; IC50 (Molt4 cell): 0.5 µM
COc1cc(/C=C2\CC/C(=C\c3ccc(OCCn4ccnc4C)c(OC)c3)C2=O)ccc1OCCn1ccnc1C [SM232] |  |  |  |  | IC50 [2, 6]: 0.1 µM; IC50 (Molt4 cell): 0.9 µM
CCc1ccc(/C=C2\CN(Cc3cn(CCNc4ccnc5cc(Cl)ccc45)nn3)C/C(=C\c3ccc(CC)cc3)C2=O)cc1 [SR13] | 3.7 ± 2.1 | 6.5 ± 3 | 5.3 ± 2.8 | 3.7 ± 0.21 | 
O=C1/C(=C/c2ccc(Br)cc2)CN(Cc2cn(CCNc3ccnc4cc(Cl)ccc34)nn2)C/C1=C\c1ccc(Br)cc1 [SR14] | 1.5 ± 0.24 | 6.6 ± 4.6 | 2.7 ± 1.3 | 1.2 ± 0.32 | 
O=C1/C(=C/c2ccc(Cl)cc2)CN(Cc2cn(CCNc3ccnc4cc(Cl)ccc34)nn2)C/C1=C\c1ccc(Cl)cc1 [SR15] | 3.1 ± 1.8 | 3.1 ± 1.3 | 2.1 ± 0.35 | 3 ± 0.31 | 
O=C1/C(=C/c2ccc(F)cc2)CN(Cc2cn(CCNc3ccnc4cc(Cl)ccc34)nn2)C/C1=C\c1ccc(F)cc1 [SR16] | 2 ± 0.05 | 3.7 ± 2.4 | 2.2 ± 0.93 | 2.6 ± 0.41 | 
O=C1/C(=C/c2cccc(Br)c2)CN(Cc2cn(CCNc3ccnc4cc(Cl)ccc34)nn2)C/C1=C\c1cccc(Br)c1 [SR17] | 2.8 ± 0.8 | 9.6 ± 7.3 | 2.5 ± 1.2 | 4.3 ± 2.4 | 
Cc1ccc(/C=C2\CN(Cc3cn(CCCNc4ccnc5cc(Cl)ccc45)nn3)C/C(=C\c3ccc(C)cc3)C2=O)cc1 [SR34] | 2.7 ± 0.8 | 4 ± 0.49 | 2.8 ± 0.93 | 4.7 ± 1.1 | 
O=C1/C(=C/c2ccc(Br)cc2)CN(Cc2cn(CCCNc3ccnc4cc(Cl)ccc34)nn2)C/C1=C\c1ccc(Br)cc1 [SR36] | 1.7 ± 0.24 | 1.9 ± 0.59 | 2 ± 1.2 | 1.5 ± 0.3 | 
COc1ccc(/C=C2\CN(Cc3cn(CCCNc4ccnc5cc(Cl)ccc45)nn3)C/C(=C\c3ccc(OC)cc3)C2=O)cc1 [SR37] | 11 ± 2.7 | 6.7 ± 1.9 | 5 ± 2.2 | 4.7 ± 0.87 | 
COc1ccc(/C=C2\CN(Cc3cn(CCCNc4ccnc5cc(Cl)ccc45)nn3)C/C(=C\c3ccc(OC)c(OC)c3)C2=O)cc1OC [SR38] | 2.6 ± 0.4 | 6.7 ± 4.4 | 2.5 ± 1.3 | 2.1 ± 0.05 | 
O=C1/C(=C/c2ccc(F)cc2)CN(Cc2cn(CCCNc3ccnc4cc(Cl)ccc34)nn2)C/C1=C\c1ccc(F)cc1 [SR39] | 3 ± 0.75 | 5.3 ± 2.8 | 2.6 ± 1.4 | 2.6 ± 0.69 | 
O=C1/C(=C/c2ccc(Cl)cc2)CN(Cc2cn(CCCNc3ccnc4cc(Cl)ccc34)nn2)C/C1=C\c1ccc(Cl)cc1 [SR40] | 1.8 ± 0.68 | 1.9 ± 0.62 | 1.8 ± 0.65 | 1.8 ± 0.29 | 
